The values that follow come from US11839215B2, “Uracil compound and harmful arthropod control composition containing same” (Sumitomo Chemical Company, Limited, priority 2018, dated 2023).

Molecules are shown by their SMILES.

In this series the test system is common cutworms (Spodoptera litura). As to the kind of experiment: Test Example 1: spray on cabbage seedling, mortality of common cutworm larvae. In kind it is in vivo. To be noted: 500 ppm diluted solution sprayed on cabbage seedling 20 mL/seedling; five second instar larvae; 25° C., 5 days. On the procedure: The compound A is made to a formulation according to a similar method to that described in the Formulation Example 5, and thereto is added water containing 0.03 v/v % of shindain (registered trademark) to prepare a diluted solution containing 500 ppm of the test compound.
The diluted solution was sprayed into the cabbage (Brassicae oleracea) seedling (on the developmental stage of the second to third true leaf) that is planted in a container in a ratio of 20 mL/seedling.
Thereafter, the stem and leaf thereof was cut out and then was installed into the container that was covered with the filter paper. Five common cutworms (Spodoptera litura) at the second instar larval stages were released into the container, and the container was allowed to stand at 25° C. for 5 days. […] Mortality (%)={1−Number of the surviving insects/5}×100

`CCOC(=O)COc1ncccc1Oc1cc(-n2c(=O)cc(C(F)(F)F)n(C)c2=O)c(F)cc1Cl` [Compound B]: the mortality of insects came out at 0%.
In turn, `CCOC(=O)COc1nc(C)cc(C)c1Oc1cc(-n2c(=O)cc(C(F)(F)F)n(C)c2=O)c(F)cc1Cl` [Compound A] returned a mortality of insects of 100%.
